Key:
Glucocorticoid receptor [1] = target: T1, Glucocorticoid receptor (Homo sapiens, UniProt P04150); experiment: Agonist activity at glucocorticoid receptor in human A549 cells by NF-kappaB transrepression assay; assay type: functional, cell-based
T1 sequence (P04150 whole entry): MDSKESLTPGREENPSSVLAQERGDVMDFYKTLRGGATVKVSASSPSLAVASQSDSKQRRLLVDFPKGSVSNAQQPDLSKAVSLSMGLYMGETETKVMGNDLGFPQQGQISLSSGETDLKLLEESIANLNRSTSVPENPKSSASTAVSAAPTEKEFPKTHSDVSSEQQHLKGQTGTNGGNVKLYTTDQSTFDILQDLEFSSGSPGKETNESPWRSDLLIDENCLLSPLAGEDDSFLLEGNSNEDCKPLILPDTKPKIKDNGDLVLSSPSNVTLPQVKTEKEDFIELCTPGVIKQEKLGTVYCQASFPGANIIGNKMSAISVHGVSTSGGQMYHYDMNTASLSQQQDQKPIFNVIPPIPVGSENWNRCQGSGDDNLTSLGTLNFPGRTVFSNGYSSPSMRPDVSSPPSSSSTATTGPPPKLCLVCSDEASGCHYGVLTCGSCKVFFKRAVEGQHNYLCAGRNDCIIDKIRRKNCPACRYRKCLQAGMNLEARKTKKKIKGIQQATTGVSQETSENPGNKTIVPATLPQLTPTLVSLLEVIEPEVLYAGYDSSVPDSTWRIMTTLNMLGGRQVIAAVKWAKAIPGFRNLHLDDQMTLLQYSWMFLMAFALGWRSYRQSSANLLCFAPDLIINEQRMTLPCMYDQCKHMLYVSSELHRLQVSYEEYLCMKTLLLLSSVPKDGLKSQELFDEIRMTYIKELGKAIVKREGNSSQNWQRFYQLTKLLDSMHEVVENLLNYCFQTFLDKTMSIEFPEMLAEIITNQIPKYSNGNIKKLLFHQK

Glucocorticoid receptor [2] = target: T1, Glucocorticoid receptor; experiment: Agonist activity at GR in human A549 cells transfected with luciferase gene linked to MMTV promoter assessed as luciferase transactivation activity; assay type: functional, cell-based
Glucocorticoid receptor [3] = target: T1, Glucocorticoid receptor; experiment: Displacement of fluorescent-labelled Dexamethasone from glucocorticoid receptor
[4] = Selectivity ratio of progesterone receptor to glucocorticoid receptor
[5] = Selectivity ratio of androgen receptor to glucocorticoid receptor

Compound	IC50 (Glucocorticoid receptor [1]) [nM]	IC50 (Glucocorticoid receptor [2]) [nM]	IC50 (Glucocorticoid receptor [3]) [nM]	Selectivity ratio [4]	Selectivity ratio [5]
Cc1cc(C)c(S(=O)(=O)N[C@@H](C)CNc2cc(C)cc3c2cnn3-c2ccc(NCC(N)=O)cc2)c(C)c1	3.16	63.1	15.8	–	–
COc1cccc(-n2ncc3c(NC[C@H](C)NS(=O)(=O)c4c(C)cc(C)cc4C)cc(C)cc32)c1	50.1	200	–	10	> 100
Cc1cc(NC[C@H](C)NS(=O)(=O)C2CC2)c2cnn(-c3cccc(C(=O)N4CCC[C@H]4C(N)=O)c3)c2c1	794	3980	158	–	–
Cc1cc(C)c(S(=O)(=O)N[C@@H](C)CNc2cc(C)cc3c2cnn3-c2cccc(N3CCCC(CO)C3)c2)c(C)c1 (single isomer, unassigned; isomer 2)	39.8	316	15.8	–	–
Cc1cc(C)c(S(=O)(=O)N[C@@H](C)CNc2cc(C)cc3c2cnn3-c2cccc(NC(C)C)c2)c(C)c1	0.126	0.501	6.31	–	–
Cc1cc(C)c(S(=O)(=O)N[C@@H](C)CNc2cc(C)cc3c2cnn3-c2cccc(NCC(N)=O)c2)c(C)c1	0.251	2.51	12.6	–	–
Cc1cc(NC[C@H](C)NS(=O)(=O)C2CC2)c2cnn(-c3cccc(C(=O)NCC(N)=O)c3)c2c1	5.01	200	7.94	–	–
Cc1cc(NC[C@H](C)NS(C)(=O)=O)c2cnn(-c3cccc(C(=O)NC(C)C)c3)c2c1	200	2000	126	–	–
Cc1cc(NC[C@H](C)NS(=O)(=O)C2CC2)c2cnn(-c3cccc(C(=O)N4CCCC(CO)C4)c3)c2c1 (some centres not stated)	251	> 6310	126	–	–
Cc1cc(NC[C@H](C)NS(=O)(=O)C2CC2)c2cnn(-c3cccc(C(=O)N[C@H](C)C(N)=O)c3)c2c1	3.16	126	31.6	–	–
Cc1cc(C)c(S(=O)(=O)N[C@@H](C)CNc2cc(C)cc3c2cnn3-c2ccc(NC3CC3)cc2)c(C)c1	1.26	7.94	7.94	–	–
Cc1cc(NC[C@H](C)NS(=O)(=O)C2CC2)c2cnn(-c3cccc(C(=O)N[C@@H](C)C(N)=O)c3)c2c1	5.01	200	39.8	–	–
Cc1cc(C)c(S(=O)(=O)N[C@@H](C)CNc2cc(C)cc3c2cnn3-c2ccc(S(C)(=O)=O)cc2)c(C)c1	5.01	12.6	31.6	10	> 100
CCCS(=O)(=O)N[C@@H](C)CNc1cc(C)cc2c1cnn2-c1cccc(C(=O)NC(C)C)c1	20	79.4	12.6	–	–
Cc1cc(C)c(S(=O)(=O)N[C@@H](C)CNc2cc(C)cc3c2cnn3-c2cccc(F)c2)c(C)c1	7.94	25.1	15.8	10	> 100
Cc1cc(C)c(S(=O)(=O)N[C@@H](C)CNc2cc(C)cc3c2cnn3-c2cccc(NC3CC3)c2)c(C)c1	0.316	1.26	7.94	–	–

Compound	IC50 (Glucocorticoid receptor [1]) [nM]	IC50 (Glucocorticoid receptor [2]) [nM]	IC50 (Glucocorticoid receptor [3]) [nM]	Selectivity ratio [4]	Selectivity ratio [5]
Cc1cc(NC[C@H](C)NS(=O)(=O)C2CC2)c2cnn(-c3cccc(C(=O)N(C)[C@H](C)C(N)=O)c3)c2c1	2.51	50.1	31.6	–	–
Cc1cc(C)c(S(=O)(=O)N[C@@H](C)CNc2cc(C)cc3c2cnn3-c2ccc(NC(C)C)cc2)c(C)c1	2	10	12.6	–	–
Cc1cc(C)c(S(=O)(=O)N[C@@H](C)CNc2cc(C)cc3c2cnn3-c2ccc(F)cc2)c(C)c1	1.26	3.98	15.8	10	> 100
Cc1cc(C)c(S(=O)(=O)N[C@@H](C)CNc2cc(C)cc3c2cnn3-c2cccc(N[C@H](C)C(N)=O)c2)c(C)c1	0.2	2	15.8	–	–
CCN(C[C@](O)(CNc1cccc2c1cnn2-c1ccc(F)cc1)C(F)(F)F)C(=O)c1c(Cl)cccc1Cl	0.0794	0.316	15.8	–	–
Cc1cc(C)c(S(=O)(=O)N[C@@H](C)CNc2cc(C)cc3c2cnn3-c2cccc(N[C@@H](C)C(N)=O)c2)c(C)c1	0.501	1.58	5.01	–	–
Cc1cc(C)c(S(=O)(=O)N[C@@H](C)CNc2cc(C)cc3c2cnn3-c2cccc(N3CCCC(CO)C3)c2)c(C)c1 (stereo in doubt; 14l)	20	251	25.1	–	–
Cc1cc(C)c(S(=O)(=O)N[C@@H](C)CNc2cc(C)cc3c2cnn3-c2ccc(C#N)cc2)c(C)c1	2	5.01	15.8	10	> 100
Cc1cc(C)c(S(=O)(=O)N[C@@H](C)CNc2cc(C)cc3c2cnn3-c2cccc(N3CCCC(CO)C3)c2)c(C)c1 (single isomer, unassigned; isomer 1)	39.8	631	25.1	–	–
Cc1cc(C)c(S(=O)(=O)N[C@@H](C)CNc2cc(C)cc3c2cnn3-c2ccc(N[C@@H](C)C(N)=O)cc2)c(C)c1	7.94	15.8	31.6	–	–
Cc1cc(C)c(S(=O)(=O)NC[C@@H](C)Nc2cc(C)cc3c2cnn3-c2ccc(F)cc2)c(C)c1	6.31	50.1	12.6	–	–
Cc1cc(NC[C@H](C)NS(=O)(=O)C2CC2)c2cnn(-c3cccc(C(=O)NC(C)C)c3)c2c1	2	12.6	15.8	–	–
COc1ccc(-n2ncc3c(NC[C@H](C)NS(=O)(=O)c4c(C)cc(C)cc4C)cc(C)cc32)cc1	12.6	50.1	15.8	10	> 100
CNc1ccc(-n2ncc3c(NC[C@H](C)NS(=O)(=O)c4c(C)cc(C)cc4C)cc(C)cc32)cc1	5.01	251	20	–	–
Cc1cc(NC[C@H](C)NS(=O)(=O)C(C)C)c2cnn(-c3cccc(C(=O)NC(C)C)c3)c2c1	7.94	50.1	39.8	–	–
Cc1cc(C)c(S(=O)(=O)N[C@@H](C)CNc2cc(C)cc3c2cnn3-c2ccc(N[C@H](C)C(N)=O)cc2)c(C)c1	7.94	158	25.1	–	–

— ChEMBL document CHEMBL1667843, “Discovery of a potent series of non-steroidal non α-trifluoromethyl carbinol glucocorticoid receptor agonists with reduced lipophilicity” (Bioorg Med Chem Lett, 2011)
